Assay results: US20060094682A1, “Kinase inhibitors for the treatment of diabetes and obesity” (Odyssey Thera, Inc., priority 2004, published 2006)

What was measured:
[1] = system: human T cells; conditions: read-out: IC50 anti-CD3-stimulated tyrosine phosphorylation of human T cells; cited from earlier work
[2] = biological target: Hck (Homo sapiens, UniProt P08631); conditions: cited from earlier work
[3] = system: PPAR-[Gamma]:SRC-1 complexes; assay: PPAR-[Gamma]:SRC-1 fluorescence protein-fragment complementation assay (PCA), drug treatment; type: cell-based, human; conditions: HEK293 cells; for effect on PPAR-[Gamma]:SRC-1 complex: 10 micromolar PP3 or 1 micromolar PD 153035 for 6.5 hours prior to rosiglitazone for 1.5 hours
Source text: Reporter fragments for PCA were generated by oligonucleotide synthesis (Blue Heron Biotechnology, Bothell, Wash.). First, oligonucleotides coding for polypeptide fragments YFP[1]and YFP[2] […] Next, PCR mutagenesis was used to generate the mutant fragments IFP[1] and IFP[2]. […] The YFP[1], YFP[2], IFP[1] and IFP[2] fragments were amplified by PCR to incorporate restriction sites and a linker sequence, described below, in configurations that would allow fusion of a gene of interest to either the 5′- or 3′-end of each reporter fragment. […] Additionally, these vectors still retain the SV40 origin, allowing for episomal expression in cell lines expressing the SV40 large T antigen (e.g. HEK293T, Jurkat or COS).
Recombinants in the host strains DH5-alpha (Invitrogen, Carlsbad, Calif.) or XL1 Blue MR (Stratagene, La Jolla, Calif.) were screened by colony PCR, and clones containing inserts of the correct size were subjected to end sequencing to confirm the presence of the gene of interest and in-frame fusion to the appropriate reporter fragment. A subset of fusion constructs were selected for full-insert sequencing by primer walking. DNAs were isolated using Qiagen MaxiPrep kits (Qiagen, Chatsworth, Calif.). PCR was used to assess the integrity of each fusion construct, by combining the appropriate gene-specific primer with a reporter-specific primer to confirm that the correct gene-fusion was present and of the correct size with no internal deletions.
HEK293 cells were maintained in MEM alpha medium (Invitrogen) supplemented with 10% FBS (Gemini Bio-Products), 1% penicillin, and 1% streptomycin, and grown in a 37° C. incubator equilibrated to 5% CO2.

[4] = system: Src family kinases; conditions: cited from earlier work

Hck, sequence (P08631 whole entry, species assumed, the tested form may be a part): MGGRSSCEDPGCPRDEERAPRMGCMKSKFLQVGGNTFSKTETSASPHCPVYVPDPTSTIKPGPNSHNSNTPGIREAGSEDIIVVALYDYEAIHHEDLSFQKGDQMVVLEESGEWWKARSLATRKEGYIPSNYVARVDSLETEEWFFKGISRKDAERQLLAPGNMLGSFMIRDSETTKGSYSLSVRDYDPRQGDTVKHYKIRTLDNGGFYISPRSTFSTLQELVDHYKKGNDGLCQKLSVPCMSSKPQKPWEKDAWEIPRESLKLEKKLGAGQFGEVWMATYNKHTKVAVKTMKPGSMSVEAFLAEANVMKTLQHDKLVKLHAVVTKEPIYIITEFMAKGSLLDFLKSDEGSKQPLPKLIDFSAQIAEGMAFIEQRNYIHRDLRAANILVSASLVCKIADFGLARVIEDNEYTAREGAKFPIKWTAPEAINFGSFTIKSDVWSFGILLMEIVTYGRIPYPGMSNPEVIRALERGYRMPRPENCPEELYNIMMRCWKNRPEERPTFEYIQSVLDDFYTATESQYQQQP

4-amino-5-(4-chlorophenyl)-7-(t-butyl)pyrazolo[3,4-d]pyrimidine [PP2]
IC50 [1]: 600 nM | IC50 [2]: 5 nM

COc1cc2ncnc(Nc3cccc(Br)c3)c2cc1OC [PD153035, 4-[(3-Bromophenyl)amino]-6,7-dimethoxyquinazoline]
effect on PPAR-[Gamma]:SRC-1 complex [3]: no effect

Nc1ncnc2c1cnn2-c1ccccc1 [PP3, 4-Amino-7-phenylpyrazol[3,4-d]pyrimidine]
effect on PPAR-[Gamma]:SRC-1 complex [3]: no effect | activity against Src family kinases [4]: inactive

CN(CCOc1ccc(CC2SC(=O)NC2=O)cc1)c1ccccn1 (stereo not drawn) [rosiglitazone]
increase of fluorescence intensity of the PPAR-[Gamma]:SRC-1 PCA ([3]; 15 micromolar rosiglitazone for 90 minutes vs unstimulated): 6 fold
